This note sets out measurements from patent US9567345B2, “Pharmaceutically active pyrazolo-triazine derivatives” (LEAD DISCOVERY CENTER GMBH, priority 2012, dated 2017).

Common to all, as to assay type: biochemical
In one assay the target is CDK7/CycH/Mat1 (Homo sapiens, UniProt P50613). Briefly: CDK7 Enzymatic Activity Assay (Lance Kinase Activity Assay, FRET). To be noted: CDK7/CycH/Mat1, 25 μM ATP final; class ranges; read-out: CDK7: IC50 [nM] for CDK7 inhibition. The procedure, abridged: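 Ulight-MBP peptide phosphorylation by CDK7/CycH/Mat1 in HEPES 50 mM pH 7.5, MgCl2, EGTA, DTT, Tween-20; 1 h at room temperature, then EDTA stop with Eu-anti-phospho-MBP antibody for 1 h and TR-FRET read. Compounds in 8-point 1:3 DMSO series; IC50 from sigmoidal dose-response fit.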
Sequence of CDK7/CycH/Mat1 (P50613 whole entry): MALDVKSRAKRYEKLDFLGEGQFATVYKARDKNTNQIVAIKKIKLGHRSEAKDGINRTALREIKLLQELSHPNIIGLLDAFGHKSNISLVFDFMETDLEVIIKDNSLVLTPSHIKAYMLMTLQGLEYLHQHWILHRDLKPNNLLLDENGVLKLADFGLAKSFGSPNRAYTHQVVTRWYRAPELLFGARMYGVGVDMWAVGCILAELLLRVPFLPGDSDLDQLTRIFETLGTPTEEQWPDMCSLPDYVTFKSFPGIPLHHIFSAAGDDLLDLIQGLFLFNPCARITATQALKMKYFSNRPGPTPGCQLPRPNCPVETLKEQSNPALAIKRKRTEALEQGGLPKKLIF

The target of another assay is T1, CDK2/CycA (Homo sapiens, UniProt P24941).
T1 construct: purchased Proqinase
The assay is described as follows: CDK2 Enzymatic Activity Assay (Lance Kinase Activity Assay, FRET). The following applies: Table 5B, class symbols per IC50 [nM] ranges of b581; read-out: CDK2: Selectivity of CDK7 inhibition over CDK2 inhibition. The procedure, abridged: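 LANCE TR-FRET assay: CDK2/CycA phosphorylated ULight-MBP peptide in HEPES 50 mM pH 7.5 buffer with MgCl2, EGTA, DTT and Tween-20 for 1 h at room temperature. Eu-anti-phospho-MBP antibody with EDTA was then added for 1 h before reading. IC50 was fitted from 8-point, 1:3 sigmoidal dose-response curves.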

The target of a further assay is CDK9/Cyclin T1 (Homo sapiens, UniProt P50750). Briefly: CDK9 Enzymatic Activity Assay (Lance Kinase Activity Assay, FRET). The following applies: Table 5B, class symbols per IC50 [nM] ranges of b581; read-out: CDK9: Selectivity of CDK7 inhibition over CDK9 inhibition. The procedure, abridged:
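CDK9/cyclin T1 phosphorylation of a ULight-MBP peptide was run for 1 h at room temperature in pH 7.5 HEPES buffer with MgCl2, EGTA, DTT and Tween-20. It was followed by 1 h with Eu-anti-phospho-MBP antibody (4 nM) in EDTA detection buffer. TR-FRET loss gave IC50 from 8-point, 1:3 sigmoidal dose-response curves.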

Sequence of CDK9/Cyclin T1 (P50750 whole entry): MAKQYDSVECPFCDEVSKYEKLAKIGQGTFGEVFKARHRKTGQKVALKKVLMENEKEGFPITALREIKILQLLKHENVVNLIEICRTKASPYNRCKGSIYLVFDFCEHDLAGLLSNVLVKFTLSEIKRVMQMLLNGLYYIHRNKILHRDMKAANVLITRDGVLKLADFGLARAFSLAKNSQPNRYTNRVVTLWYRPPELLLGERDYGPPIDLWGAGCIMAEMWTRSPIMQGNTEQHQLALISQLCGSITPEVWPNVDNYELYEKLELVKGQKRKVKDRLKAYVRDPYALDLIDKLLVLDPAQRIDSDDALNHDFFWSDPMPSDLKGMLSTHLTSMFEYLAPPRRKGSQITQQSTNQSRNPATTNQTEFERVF
Sequence of CDK9/Cyclin T1 (O60563 whole entry partner): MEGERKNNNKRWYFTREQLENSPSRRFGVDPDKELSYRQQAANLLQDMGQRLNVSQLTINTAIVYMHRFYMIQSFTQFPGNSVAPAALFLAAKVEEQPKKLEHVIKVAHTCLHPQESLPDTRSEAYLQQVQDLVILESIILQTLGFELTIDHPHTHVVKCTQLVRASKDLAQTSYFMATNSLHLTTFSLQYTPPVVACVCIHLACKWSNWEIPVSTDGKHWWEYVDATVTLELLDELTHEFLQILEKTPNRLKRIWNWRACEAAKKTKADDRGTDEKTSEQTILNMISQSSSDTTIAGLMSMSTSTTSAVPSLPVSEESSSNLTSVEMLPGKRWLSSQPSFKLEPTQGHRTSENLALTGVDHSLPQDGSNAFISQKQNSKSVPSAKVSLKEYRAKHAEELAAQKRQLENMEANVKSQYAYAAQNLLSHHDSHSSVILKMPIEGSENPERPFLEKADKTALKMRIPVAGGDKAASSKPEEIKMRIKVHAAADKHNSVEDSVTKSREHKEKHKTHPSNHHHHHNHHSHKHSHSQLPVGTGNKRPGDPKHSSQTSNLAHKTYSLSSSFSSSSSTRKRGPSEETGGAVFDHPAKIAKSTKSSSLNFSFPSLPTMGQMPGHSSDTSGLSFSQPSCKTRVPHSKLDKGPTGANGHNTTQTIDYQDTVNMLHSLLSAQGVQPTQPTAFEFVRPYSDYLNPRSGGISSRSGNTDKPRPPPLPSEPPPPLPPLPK

Turning to `C#CC(C)NC(=O)c1ccccc1CNc1nc(O[C@@H]2CCCNC2)nc2c(C(C)C)cnn12` (stereo partly drawn) [(VII-109), N-(but-3-yn-2-yl)-2-(((8-isopropyl-2-((R)-piperidin-3-yloxy)pyrazolo[1,5-a][1,3,5]triazin-4-yl)amino)methyl)benzamide], the values for the IC50 at CDK7/CycH/Mat1, at CDK2/CycA and on CDK9/Cyclin T1 were 10 to 25 nM, more than 2500 nM and more than 2500 nM, respectively.

As to `CCCNC(=O)Nc1ccccc1CNc1nc(O[C@@H]2CCCNC2)nc2c(C(C)C)cnn12` [(VII-110), (R)-1-(2-(((8-isopropyl-2-(piperidin-3-yloxy)pyrazolo[1,5-a][1,3,5]triazin-4-yl)amino)methyl)phenyl)-3-propylurea], the IC50 at CDK7/CycH/Mat1 is less than 5 nM; at CDK2/CycA, more than 2500 nM; on CDK9/Cyclin T1, more than 2500 nM.

With `CC(C)c1cnn2c(NCc3ccccc3NC(=O)NC3CCCCC3)nc(O[C@@H]3CCCNC3)nc12` [(VII-112), (R)-1-cyclohexyl-3-(2-(((8-isopropyl-2-(piperidin-3-yloxy)pyrazolo[1,5-a][1,3,5]triazin-4-yl)amino)methyl)phenyl)urea], the IC50 is 5 to 10 nM on CDK7/CycH/Mat1, more than 2500 nM at CDK2/CycA and more than 2500 nM at CDK9/Cyclin T1.

On to `CC(C)c1cnn2c(NCc3ccccc3NC(=O)NCc3ccccc3)nc(O[C@@H]3CCCNC3)nc12` [(VII-113), (R)-1-benzyl-3-(2-(((8-isopropyl-2-(piperidin-3-yloxy)pyrazolo[1,5-a][1,3,5]triazin-4-yl)amino)methyl)phenyl)urea], for which the results for the IC50 at CDK7/CycH/Mat1, on CDK2/CycA and on CDK9/Cyclin T1 were 10 to 25 nM, more than 2500 nM and more than 2500 nM, respectively.

Take `CCNC(=O)Nc1ccccc1CNc1nc(O[C@@H]2CCCNC2)nc2c(C(C)C)cnn12` [(VII-114), (R)-1-ethyl-3-(2-(((8-isopropyl-2-(piperidin-3-yloxy)pyrazolo[1,5-a][1,3,5]triazin-4-yl)amino)methyl)phenyl)urea]: the IC50 on CDK7/CycH/Mat1 was less than 5 nM; on CDK2/CycA it was more than 2500 nM; at CDK9/Cyclin T1, more than 2500 nM.

As to `Cc1ccc(CNc2nc(O[C@@H]3CCCNC3)nc3c(C(C)C)cnn23)c(OCC(C)C)c1` [(VII-115), (R)-N-(2-isobutoxy-4-methylbenzyl)-8-isopropyl-2-(piperidin-3-yloxy)pyrazolo[1,5-a][1,3,5]triazin-4-amine], the IC50 is more than 25 nM at CDK7/CycH/Mat1, more than 2500 nM on CDK2/CycA and more than 2500 nM on CDK9/Cyclin T1.

In the case of `CC(C)c1cnn2c(NCc3cccc4c3OCCCO4)nc(O[C@@H]3CCCNC3)nc12` [(VII-116), (R)-N-((3,4-dihydro-2H-benzo[b][1,4]dioxepin-6-yl)methyl)-8-isopropyl-2-(piperidin-3-yloxy)pyrazolo[1,5-a][1,3,5]triazin-4-amine], the IC50 on CDK7/CycH/Mat1 fell in the range of 10 to 25 nM; on CDK2/CycA it was 50 to 500 nM; on CDK9/Cyclin T1, 500 to 2500 nM.

Consider `CC(C)c1cnn2c(NCc3ccccc3C3=CCCCC3)nc(O[C@@H]3CCCNC3)nc12` [(VII-117), (R)-8-isopropyl-2-(piperidin-3-yloxy)-N-((2′,3′,4′,5′-tetrahydro-[1,1′-biphenyl]-2-yl)methyl)pyrazolo[1,5-a][1,3,5]triazin-4-amine], for which the figures for the IC50 at CDK7/CycH/Mat1, at CDK2/CycA and on CDK9/Cyclin T1 were more than 25 nM, more than 2500 nM and more than 2500 nM, respectively.

Regarding `CSc1ccccc1CNc1nc(O[C@@H]2CCCNC2)nc2c(C(C)C)cnn12` [(VII-118), (R)-8-isopropyl-N-(2-(methylthio)benzyl)-2-(piperidin-3-yloxy)pyrazolo[1,5-a][1,3,5]triazin-4-amine], the figures for the IC50 on CDK7/CycH/Mat1, on CDK2/CycA and at CDK9/Cyclin T1 were 5 to 10 nM, 50 to 500 nM and 50 to 500 nM, respectively.

`CC(C)c1cnn2c(NCc3ccccc3SC3CCCC3)nc(O[C@@H]3CCCNC3)nc12` [(VII-119), (R)-N-(2-(cyclopentylthio)benzyl)-8-isopropyl-2-(piperidin-3-yloxy)pyrazolo[1,5-a][1,3,5]triazin-4-amine]: the results for the IC50 on CDK7/CycH/Mat1, on CDK2/CycA and on CDK9/Cyclin T1 were more than 25 nM, 500 to 2500 nM and more than 2500 nM, respectively.

Take `CC(C)c1cnn2c(NCc3ccccc3-n3cccn3)nc(OC3C=CCNC3)nc12` (stereo not drawn) [(VII-120), N-(2-(1H-pyrazol-1-yl)benzyl)-8-isopropyl-2-((1,2,3,6-tetrahydropyridin-3-yl)oxy)pyrazolo[1,5-a][1,3,5]triazin-4-amine]: the IC50 is 5 to 10 nM on CDK7/CycH/Mat1, 50 to 500 nM on CDK2/CycA and more than 2500 nM on CDK9/Cyclin T1.

As to `CC(C)c1cnn2c(NCc3ccccc3-n3cccn3)nc(OC3COC4(CCNCC4)C3)nc12` (stereo not drawn) [(VII-121), 2-(1-oxa-8-azaspiro[4.5]decan-3-yloxy)-N-(2-(1H-pyrazol-1-yl)benzyl)-8-isopropylpyrazolo[1,5-a][1,3,5]triazin-4-amine], the IC50 at CDK7/CycH/Mat1 was less than 5 nM; on CDK2/CycA, more than 2500 nM; on CDK9/Cyclin T1, more than 2500 nM.

`CC(C)c1cnn2c(NCc3ccccc3-n3cccn3)nc(OC3CNCCOC3)nc12` (stereo not drawn) [(VII-122), 2-((1,4-oxazepan-6-yl)oxy)-N-(2-(1H-pyrazol-1-yl)benzyl)-8-isopropylpyrazolo[1,5-a][1,3,5]triazin-4-amine]: the IC50 on CDK7/CycH/Mat1 is 10 to 25 nM; on CDK2/CycA, 500 to 2500 nM; on CDK9/Cyclin T1, more than 2500 nM.

For `CC(C)c1cnn2c(NCc3ccccc3-n3cccn3)nc(OC3C[C@H]4CNC[C@@H]34)nc12` (stereo partly drawn) [(VII-123), N-(2-(1H-pyrazol-1-yl)benzyl)-2-((1R,5S)-3-azabicyclo[3.2.0]heptan-6-yloxy)-8-isopropylpyrazolo[1,5-a][1,3,5]triazin-4-amine], the IC50 at CDK7/CycH/Mat1 was less than 5 nM; at CDK2/CycA, 50 to 500 nM; at CDK9/Cyclin T1, more than 2500 nM.

On to `CC(C)c1cnn2c(NCc3ccccc3-n3cccn3)nc(OCCN3CCNCC3)nc12` [(VII-124), N-(2-(1H-pyrazol-1-yl)benzyl)-8-isopropyl-2-(2-(piperazin-1-yl)ethoxy)pyrazolo[1,5-a][1,3,5]triazin-4-amine], for which the IC50 was more than 25 nM on CDK7/CycH/Mat1, more than 2500 nM on CDK2/CycA and more than 2500 nM on CDK9/Cyclin T1.

Regarding `CC(C)c1cnn2c(NCc3ccccc3C3CCCC3)nc(O[C@@H]3CCCNC3)nc12` [(VII-142), (R)-N-(2-cyclopentylbenzyl)-8-isopropyl-2-(piperidin-3-yloxy)pyrazolo[1,5-a][1,3,5]triazin-4-amine], the values for the IC50 on CDK7/CycH/Mat1, on CDK2/CycA and on CDK9/Cyclin T1 were more than 25 nM, more than 2500 nM and more than 2500 nM, respectively.

In the case of `CC(=O)Oc1ccccc1CNc1nc(O[C@@H]2CCCNC2)nc2c(C(C)C)cnn12` [(VII-145), (R)-2-(((8-isopropyl-2-(piperidin-3-yloxy)pyrazolo[1,5-a][1,3,5]triazin-4-yl)amino)methyl)phenyl acetate], the IC50 at CDK7/CycH/Mat1 lay in the range of 10 to 25 nM; at CDK2/CycA, 500 to 2500 nM; at CDK9/Cyclin T1, 500 to 2500 nM.

Consider `CCNC(=O)Oc1ccccc1CNc1nc(O[C@@H]2CCCNC2)nc2c(C(C)C)cnn12` [(VII-146), (R)-2-(((8-isopropyl-2-(piperidin-3-yloxy)pyrazolo[1,5-a][1,3,5]triazin-4-yl)amino)methyl)phenyl ethylcarbamate], for which the IC50 is 10 to 25 nM at CDK7/CycH/Mat1, more than 2500 nM on CDK2/CycA and more than 2500 nM on CDK9/Cyclin T1.

With `CC(C)c1cnn2c(NCc3ccccc3OS(C)(=O)=O)nc(O[C@@H]3CCCNC3)nc12` [(VII-147), (R)-2-(((8-isopropyl-2-(piperidin-3-yloxy)pyrazolo[1,5-a][1,3,5]triazin-4-yl)amino)methyl)phenyl methanesulfonate], the IC50 was 5 to 10 nM at CDK7/CycH/Mat1, 50 to 500 nM at CDK2/CycA and more than 2500 nM at CDK9/Cyclin T1.

As to `CC(C)c1cnn2c(NCc3ccccc3OS(=O)C(C)(C)C)nc(O[C@@H]3CCCNC3)nc12` (stereo partly drawn) [(VII-148), 2-(((8-isopropyl-2-((R)-piperidin-3-yloxy)pyrazolo[1,5-a][1,3,5]triazin-4-yl)amino)methyl)phenyl 2-methylpropane-2-sulfinate], the IC50 on CDK7/CycH/Mat1 was less than 5 nM; at CDK2/CycA, 50 to 500 nM; on CDK9/Cyclin T1, 50 to 500 nM.

As for `CC(C)COC(=O)Oc1ccccc1CNc1nc(O[C@@H]2CCCNC2)nc2c(C(C)C)cnn12` [(VII-149), (R)-isobutyl (2-(((8-isopropyl-2-(piperidin-3-yloxy)pyrazolo[1,5-a][1,3,5]triazin-4-yl)amino)methyl)phenyl) carbonate], the values for the IC50 on CDK7/CycH/Mat1, at CDK2/CycA and on CDK9/Cyclin T1 were 10 to 25 nM, more than 2500 nM and more than 2500 nM, respectively.

Consider `CC(C)c1cnn2c(NCc3ccccc3N=S(C)(C)=O)nc(O[C@@H]3CCCNC3)nc12` [(VII-151), N-(2-(((8-isopropyl-2-((R)-piperidin-3-yloxy)pyrazolo[1,5-a][1,3,5]triazin-4-yl)amino)methyl)phenyl)-S,S-dimethylsulfoximine], for which the IC50 at CDK7/CycH/Mat1 was less than 5 nM; on CDK2/CycA, 500 to 2500 nM; on CDK9/Cyclin T1 it was more than 2500 nM.

Regarding `CC(C)c1cnn2c(NCc3ccccc3[S+](C)[O-])nc(O[C@@H]3CCCNC3)nc12` (stereo partly drawn) [(VII-152), 8-isopropyl-N-(2-(methylsulfinyl)benzyl)-2-((R)-piperidin-3-yloxy)pyrazolo[1,5-a][1,3,5]triazin-4-amine], the IC50 at CDK7/CycH/Mat1 lay in the range of 10 to 25 nM; on CDK2/CycA, 50 to 500 nM; on CDK9/Cyclin T1 it was 500 to 2500 nM.
